Assay results taken from the supplement of paper PMC10307832.

What was measured:
Test in all cases: relative viability (nuclei count vs DMSO), 5 days (fraction); higher = more cells survive
[1] = compound: C1=CC2=C(C=CC(=C2)C=C3C(=O)NC(=NCC4=CC=CS4)S3)N=C1 [RO-3306] + CC1(C)CCC(c2ccc(Cl)cc2)=C(CN2CCN(c3ccc(C(=O)NS(=O)(=O)c4ccc(N[C@H](CCN5CCOCC5)CSc5ccccc5)c(S(=O)(=O)C(F)(F)F)c4)cc3)CC2)C1 [Navitoclax] (partner 0.5 µM)
Summary of the method: (§1)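 A single step with final 0.05% Triton X-100, 1% formaldehyde and 1 ug/ml Hoechst fixed the cells and stained nuclei 5 days after treatment. Lung cancer cell lines in 1536-well plates had been treated by pin tool the day after seeding with one drug alone or a fixed anchor-drug dose plus five library-drug doses (not always all listed) in √10 steps, and nuclei were counted on 4× images. Relative viability is the ratio of nuclei in treated wells to nuclei in vehicle wells, taken as the median of duplicate plates.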

[2] = compound: O=S(=O)(c1ccccc1)N(CC(F)(F)F)c1ccc(C(O)(C(F)(F)F)C(F)(F)F)cc1 + COc1cccc2cc(-c3nc([C@H]4CC[C@H](C(=O)O)CC4)n4ncnc(N)c34)[nH]c12 [OSI-027] (partner 0.5 µM)
Summary of the method: as §1

[3] = compound: O=S(=O)(c1ccccc1)N(CC(F)(F)F)c1ccc(C(O)(C(F)(F)F)C(F)(F)F)cc1 + O=C(CCCCCCC(=O)Nc1ccccc1)NO [Vorinostat] (partner 1 µM)
Summary of the method: as §1

[4] = compound: C1=CC2=C(C=CC(=C2)C=C3C(=O)NC(=NCC4=CC=CS4)S3)N=C1 [RO-3306] + CS(=O)(=O)N1CCN(Cc2cc3nc(-c4cccc5[nH]ncc45)nc(N4CCOCC4)c3s2)CC1 [Pictilisib] (partner 1 µM)
Summary of the method: as §1

Cell Line | relative viability ([1]; first compound 0.01 µM) | relative viability ([1]; first compound 0.03162 µM) | relative viability ([1]; first compound 0.1 µM) | relative viability ([1]; first compound 0.3162 µM) | relative viability ([1]; first compound 1 µM) | relative viability ([2]; first compound 0.8 µM) | relative viability ([2]; first compound 2.53 µM) | relative viability ([2]; first compound 8 µM) | relative viability ([3]; first compound 0.8 µM) | relative viability ([3]; first compound 2.53 µM) | relative viability ([3]; first compound 8 µM) | relative viability ([4]; first compound 0.01 µM) | relative viability ([4]; first compound 0.3162 µM) | relative viability ([4]; first compound 1 µM) | relative viability ([4]; first compound 0.03162 µM) | relative viability ([4]; first compound 0.1 µM)
CAL-12T | 1.01 | 1.07 | 1.32 | 1.16 | 1.13 | 0.548 | 0.554 | 0.588 | 0.672 | 0.578 | 0.548 | 0.359 | 0.411 | 0.462 | – | –
NCI-H2085 | 1.12 | 1.08 | 1.09 | 1.17 | 1.07 | 0.98 | 0.718 | 0.769 | 0.785 | 0.748 | 0.711 | 0.388 | 0.492 | 0.479 | 0.467 | 0.467
LOU-NH91 | 0.666 | 0.612 | 0.702 | 0.685 | 0.645 | 0.722 | 0.718 | 0.79 | 0.985 | 0.913 | 1.04 | 0.512 | 0.533 | 0.406 | 0.528 | 0.522
NCI-H1975 | 1.49 | 0.986 | 1.22 | 1.12 | 1.01 | 0.885 | 0.641 | 0.71 | 0.752 | 0.752 | 0.65 | 0.321 | 0.324 | 0.211 | 0.259 | 0.261
NCI-H23 | 0.965 | 0.842 | 0.87 | 0.881 | 0.613 | 0.62 | 0.711 | 0.594 | 0.75 | 0.622 | 0.725 | 0.507 | 0.451 | 0.433 | 0.468 | 0.433
HCC-366 | 1.22 | 0.943 | 0.991 | 1.14 | 1.15 | 1.16 | 0.872 | 0.729 | 0.506 | 0.325 | 0.279 | 0.118 | 0.214 | 0.106 | 0.0988 | 0.149
HCC-827 | 1.04 | 0.988 | 0.99 | 0.994 | 0.998 | 0.883 | 0.858 | 0.766 | 0.874 | 0.842 | 0.781 | 0.913 | 1.07 | 1.05 | 0.983 | 0.878
NCI-H2347 | 0.947 | 0.645 | 1.03 | 0.772 | 0.93 | 0.699 | 0.445 | 0.302 | 0.695 | 0.52 | 0.548 | 0.715 | 0.881 | 0.668 | 0.477 | 0.642
HCC-44 | 1.09 | 1.01 | 0.932 | 1.08 | 1.03 | – | 0.482 | 0.6 | 0.981 | 0.972 | 0.953 | 0.581 | 0.689 | 0.557 | 0.524 | 0.619
PC-3 [JPC-3] | 1.04 | 0.697 | 0.816 | 0.805 | 0.745 | 0.864 | 0.744 | 0.785 | – | 0.637 | 0.895 | 0.725 | 0.769 | 0.882 | 0.717 | 0.672
NCI-H1651 | 0.982 | 0.854 | 1.04 | 1.14 | 0.882 | 0.742 | 0.793 | 0.703 | 0.626 | 0.547 | 0.525 | 0.598 | 0.601 | 0.634 | 0.359 | 0.574
NCI-H3122 | 1.03 | 1.03 | 0.983 | 1.05 | 1.07 | 1.18 | 0.807 | 1.14 | 1.01 | 0.948 | 1.19 | 0.602 | 0.611 | 0.525 | 0.56 | 0.624
LC-2-ad | 0.451 | 0.465 | 0.437 | 0.408 | 0.378 | 0.876 | 0.889 | 0.827 | 0.734 | 0.657 | 0.602 | 0.43 | 0.488 | 0.428 | 0.275 | 0.377
LXF-289 | 0.992 | 0.961 | 0.972 | 0.976 | 0.993 | 0.877 | 0.64 | 0.749 | 0.719 | 0.656 | 0.74 | 0.781 | 0.805 | 0.774 | 0.677 | 0.806
HCC-78 | 0.814 | 0.767 | 0.675 | 0.92 | 0.682 | 0.342 | 0.399 | 0.469 | 0.489 | 0.414 | 0.425 | 0.198 | 0.224 | 0.229 | 0.213 | 0.209
NCI-H2009 | 1.2 | 1.14 | 1.17 | 1.09 | 1.13 | 0.588 | 0.567 | 0.568 | 0.707 | 0.614 | 0.648 | 0.96 | 0.753 | 0.636 | 0.712 | 0.806
